Literature values in patent publication US7109171B2, “Methods for treating FSH related conditions with GnRH antagonists” (Praecis Pharmaceuticals Inc., priority 2000, dated 2006).
Square brackets hold non-standard residues; d marks the D form. Peptide text beside a SMILES is read from it. dPhe(4-Cl) = N[C@H](Cc1ccc(Cl)cc1)C(=O)O; d2Nal = N[C@H](Cc1ccc2ccccc2c1)C(=O)O; dCit = NC(=O)NCCC[C@@H](N)C(=O)O; d3Pal = N[C@H](Cc1cccnc1)C(=O)O

Legend:
LH = details: in vivo
FSH = details: single bolus injection

Row | Compound | effect on LH levels (LH) | effect on FSH levels (FSH)
1 | CC(=O)N[C@H](Cc1ccc2ccccc2c1)C(=O)N[C@H](Cc1ccc(Cl)cc1)C(=O)N[C@H](Cc1cccnc1)C(=O)N[C@@H](CO)C(=O)N[C@@H](Cc1ccc(O)cc1)C(=O)N[C@H](CCCNC(N)=O)C(=O)N[C@@H](CC(C)C)C(=O)N[C@@H](CCCNC(=N)N)C(=O)N1CCC[C@H]1C(=O)N[C@H](C)C(N)=O [Cetrorelix] (Ac-[d2Nal][dPhe(4-Cl)][d3Pal]SY[dCit]LRP[dA]-NH2) | reduced | did not significantly affect
2 | Nal-Glu | reduced | did not significantly affect
